By IC50 is commonly meant the concentration that gives 50% inhibition.

The target in the assay is Phosphatidylinositol 3-kinase regulatory subunit alpha/4,5-bisphosphate 3-kinase catalytic subunit alpha isoform (Homo sapiens, UniProt P27986+P42336). Briefly: Inhibition of recombinant human full-length N-terminal His6-tagged p110alpha/full length untagged human p85alpha expressed in baculovirus infected Sf21 insect cells using PIP2 as substrate measured after 15 to 30 mins by fluorescence polarization assay. For orientation: Fluorescence polarisation rises when a labelled molecule tumbles more slowly, as on binding a larger partner.
Sequence of Phosphatidylinositol 3-kinase regulatory subunit alpha/4,5-bisphosphate 3-kinase catalytic subunit alpha isoform (P27986 whole entry, canonical isoform): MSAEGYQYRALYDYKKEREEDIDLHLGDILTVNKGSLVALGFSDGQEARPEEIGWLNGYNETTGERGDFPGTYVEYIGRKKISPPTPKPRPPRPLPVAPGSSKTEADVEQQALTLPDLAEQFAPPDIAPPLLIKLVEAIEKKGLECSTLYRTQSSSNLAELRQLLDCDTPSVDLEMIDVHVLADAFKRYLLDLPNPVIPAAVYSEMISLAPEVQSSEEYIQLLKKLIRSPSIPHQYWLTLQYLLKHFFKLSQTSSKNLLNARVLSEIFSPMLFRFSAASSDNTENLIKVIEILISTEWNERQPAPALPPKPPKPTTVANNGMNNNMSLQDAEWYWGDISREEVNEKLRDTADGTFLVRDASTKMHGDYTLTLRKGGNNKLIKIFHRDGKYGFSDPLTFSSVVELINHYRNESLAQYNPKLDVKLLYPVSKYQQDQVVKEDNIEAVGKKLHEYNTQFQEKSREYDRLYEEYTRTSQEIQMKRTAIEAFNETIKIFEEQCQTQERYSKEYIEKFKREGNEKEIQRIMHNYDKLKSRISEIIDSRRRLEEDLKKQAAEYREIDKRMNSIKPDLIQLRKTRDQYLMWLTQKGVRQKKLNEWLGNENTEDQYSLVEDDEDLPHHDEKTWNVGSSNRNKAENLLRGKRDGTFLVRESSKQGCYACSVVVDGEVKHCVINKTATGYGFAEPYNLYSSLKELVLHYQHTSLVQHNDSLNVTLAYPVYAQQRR
Sequence of Phosphatidylinositol 3-kinase regulatory subunit alpha/4,5-bisphosphate 3-kinase catalytic subunit alpha isoform (P42336 whole entry, canonical isoform): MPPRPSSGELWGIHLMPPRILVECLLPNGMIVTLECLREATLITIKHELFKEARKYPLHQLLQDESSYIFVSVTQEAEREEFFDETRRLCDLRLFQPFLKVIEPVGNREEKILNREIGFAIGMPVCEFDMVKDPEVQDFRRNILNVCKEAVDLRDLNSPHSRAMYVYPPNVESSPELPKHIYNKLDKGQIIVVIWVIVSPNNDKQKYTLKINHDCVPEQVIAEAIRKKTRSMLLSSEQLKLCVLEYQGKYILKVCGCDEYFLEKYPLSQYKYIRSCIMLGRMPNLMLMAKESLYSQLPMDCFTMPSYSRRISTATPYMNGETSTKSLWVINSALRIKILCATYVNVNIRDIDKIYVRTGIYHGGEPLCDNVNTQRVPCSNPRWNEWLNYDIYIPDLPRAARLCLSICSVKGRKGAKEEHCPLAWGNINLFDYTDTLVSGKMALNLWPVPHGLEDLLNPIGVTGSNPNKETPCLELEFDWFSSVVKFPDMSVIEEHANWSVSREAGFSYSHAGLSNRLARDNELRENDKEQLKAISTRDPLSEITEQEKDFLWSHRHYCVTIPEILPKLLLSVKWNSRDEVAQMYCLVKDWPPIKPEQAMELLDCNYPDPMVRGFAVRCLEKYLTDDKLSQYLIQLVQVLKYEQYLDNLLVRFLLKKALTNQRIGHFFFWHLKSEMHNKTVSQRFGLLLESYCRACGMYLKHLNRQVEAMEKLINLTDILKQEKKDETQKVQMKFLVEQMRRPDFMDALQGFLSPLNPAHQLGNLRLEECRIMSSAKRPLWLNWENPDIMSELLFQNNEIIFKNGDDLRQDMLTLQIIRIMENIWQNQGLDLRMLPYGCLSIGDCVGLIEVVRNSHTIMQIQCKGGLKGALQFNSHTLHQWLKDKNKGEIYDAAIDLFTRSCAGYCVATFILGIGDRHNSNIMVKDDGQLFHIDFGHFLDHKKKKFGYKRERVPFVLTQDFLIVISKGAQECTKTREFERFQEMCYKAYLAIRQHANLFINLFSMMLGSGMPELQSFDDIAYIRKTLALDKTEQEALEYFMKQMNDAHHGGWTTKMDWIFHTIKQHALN

Regarding `CNC(=O)Nc1ccc(-c2nc(N3CC4CCC(C3)O4)c3cnn(C4CCC5(CC4)OCCO5)c3n2)cc1` [1-(4-(4-(8-oxa-3-azabicyclo[3.2.1]octan-3-yl)-1-(1,4-dioxaspiro[4.5]decan-8-yl)-1H-pyrazolo[3,4-d]pyrimidin-6-yl)phenyl)-3-methylurea], the 50% inhibitory concentration (IC50) amounted to 1180 nM.

The values are drawn from BindingDB's records for PubMed 20068177 (Wyeth Research).
